Earlier results as cited in patent publication US20250000937A1 (ZHAOKE (HONG KONG) OPHTHALMOLOGY PHARMACEUTICAL LTD., priority 2021, published 2025).

How the values were obtained:
DED [1] = settings: OPUS-1, mean baseline ICSS of 1.84
[2] = in vivo
DED [3] = settings: in vivo

Patients with instillation site pain [2]: 22%
Structure (SMILES): CS(=O)(=O)c1cccc(C[C@H](NC(=O)c2c(Cl)cc3c(c2Cl)CCN(C(=O)c2ccc4ccoc4c2)C3)C(=O)O)c1 [Lifitegrast]
Proportion of patients with at least a 1-point improvement in ICSS from baseline to day 84 (DED [1]): 22.2% | Time to show efficacy against DED signs and symptoms (DED [3]): 3 months
